Assay results as given in patent US20230293458A1, “MULTIBIOTIC AGENTS AND METHODS OF USING THE SAME” (Flagship Pioneering Innovations V, Inc., priority 2017, published 2023).

Experiments:
[1] = Stability of multibiotic agents in Simulated Intestinal Fluid (SIF); assay type: in vitro ADME; conditions: simulated intestinal fluid pH 6.7 with pancreatin, 37° C., 1 μM
Method in brief: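 Compounds at 1 μM final (from 1 mM DMSO stock) incubated at 37 °C with agitation in fresh SIF (FaSSIF plus pancreatin in pH 6.7 phosphate buffer). Aliquots taken at T0 and regular intervals, quenched with 1 volume acetonitrile. Degradation rate determined by LC/MS.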

[2] = Stability of multibiotic agents in Simulated Gastric Fluid (SGF); assay type: in vitro ADME; conditions: simulated gastric fluid pH 1.6 with pepsin, 37° C., 1 μM
Method in brief: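 Compounds were incubated at 1 μM final at 37 °C in simulated gastric fluid containing NaCl, pH 1.6, with FaSSIF powder and 0.1 mg/mL pepsin. Aliquots were taken at T0 and at regular intervals and quenched with acetonitrile. Degradation rates were determined by LC/MS.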

Compound	Assay 3 (SIF) (% @ Remaining 4 hours) [1]	Assay 2 (SGF) (% Remaining @ 4 hours) [2]
CCCC(=O)/N=C(/NCCCCNC(=O)CCC)NC(=O)CCC [Example 134, N-[4-[[(Z)—N,N′-di(butanoyl)carbamimidoyl]amino]butyl]butanamide]	C (>75% of the tested compound remaining)	C (>75% of the tested compound remaining)
C[C@@H](O)CC(=O)NCCCNC(=O)C[C@@H](C)O [Example 135, (3R)-3-hydroxy-N-[3-[[(3R)-3-hydroxybutanoyl]amino]propyl]butanamide]	C (>75% of the tested compound remaining)	C (>75% of the tested compound remaining)
C[C@@H](O)CC(=O)NCCCN(CCCCN(CCCNC(=O)C[C@@H](C)O)C(=O)C[C@@H](C)O)C(=O)C[C@@H](C)O [Example 136, (3R)-3-hydroxy-N-[3-[[(3R)-3-hydroxybutanoyl]-[4-[[(3R)-3-hydroxybutanoyl]-[3-[[(3R)-3-hydroxybutanoyl]amino]propyl]amino]butyl]amino]propyl]butanamide]	C (>75% of the tested compound remaining)	C (>75% of the tested compound remaining)
C[C@@H](O)CC(=O)NCCCNCCCCN(CCCNC(=O)C[C@@H](C)O)C(=O)C[C@@H](C)O [Example 137, (3R)-3-hydroxy-N-[3-[4-[[(3R)-3-hydroxybutanoyl]-[3-[[(3R)-3-hydroxybutanoyl]amino]propyl]amino]butylamino]propyl]butanamide]	C (>75% of the tested compound remaining)	C (>75% of the tested compound remaining)
CC(=O)OC1OC[C@H](OC(C)=O)[C@H](OC(C)=O)[C@H]1OC(C)=O (stereo partly drawn) [Example 138, [(3S,4S,5R)-4,5,6-triacetoxytetrahydropyran-3-yl] acetate]	C (>75% of the tested compound remaining)	C (>75% of the tested compound remaining)
CCCC(=O)OC1OC[C@H](OC(=O)CCC)[C@H](OC(=O)CCC)[C@H]1OC(=O)CCC (stereo partly drawn) [Example 139, [(3S,4S,5R)-4,5,6-tri(butanoyloxy)tetrahydropyran-3-yl] butanoate]	C (>75% of the tested compound remaining)	C (>75% of the tested compound remaining)
CCCC(=O)O[C@H]1[C@@H](OC(=O)CCC)COC(O)[C@@H]1OC(=O)CCC (stereo partly drawn) [Example 140, [(3S,4S,5R)-4,5-di(butanoyloxy)-6-hydroxy-tetrahydropyran-3-yl] butanoate]	C (>75% of the tested compound remaining)	C (>75% of the tested compound remaining)
CCCC(=O)O[C@H]1[C@@H](OC(=O)CCC)COC(Oc2ccccc2C(=O)O)[C@@H]1OC(=O)CCC (stereo partly drawn) [Example 141, 2-[(3R,4S,5S)-3,4,5-tri(butanoyloxy)tetrahydropyran-2-yl]oxybenzoic acid]	A (<25% of the tested compound remaining)	C (>75% of the tested compound remaining)
Cc1ncc(CO)c(COC(=O)/C=C/c2c[nH]c3ccccc23)c1OC(=O)/C=C/c1c[nH]c2ccccc12 [Example 142, [5-(hydroxymethyl)-3-[(E)-3-(1H-indol-3-yl)prop-2-enoyl]oxy-2-methyl-4-pyridyl]methyl (E)-3-(1H-indol-3-yl)prop-2-enoate]	C (>75% of the tested compound remaining)	C (>75% of the tested compound remaining)
C[C@@H](O)CC(=O)NCCCNCCCNC(=O)C[C@@H](C)O [Example 143, (3R)-3-hydroxy-N-[3-[3-[[(3R)-3-hydroxybutanoyl]amino]propylamino]propyl] butanamide]	C (>75% of the tested compound remaining)	C (>75% of the tested compound remaining)
CCCC(=O)O[C@@H]1[C@H](OC(=O)CCC)COC(O)[C@@H]1OC(=O)CCC (stereo partly drawn) [Example 144, [(3R,4R,5R)-4,5-di(butanoyloxy)-6-hydroxy-tetrahydropyran-3-yl] butanoate]	A (<25% of the tested compound remaining)	C (>75% of the tested compound remaining)
O=C(Cc1c[nH]c2ccccc12)O[C@H]1OC[C@@H](OC(=O)Cc2c[nH]c3ccccc23)[C@@H](OC(=O)Cc2c[nH]c3ccccc23)[C@H]1OC(=O)Cc1c[nH]c2ccccc12 [Example 145, [(3R,4R,5R,6R)-4,5,6-tris[[2-(1H-indol-3-yl)acetyl]oxy]tetrahydropyran-3-yl] 2-(1H-indol-3-yl)acetate]	A (<25% of the tested compound remaining)	C (>75% of the tested compound remaining)
O=C(Cc1c[nH]c2ccccc12)O[C@@H]1OC[C@@H](OC(=O)Cc2c[nH]c3ccccc23)[C@@H](OC(=O)Cc2c[nH]c3ccccc23)[C@H]1OC(=O)Cc1c[nH]c2ccccc12 [Example 146, [(3R,4R,5R,6S)-4,5,6-tris[[2-(1H-indol-3-yl)acetyl]oxy]tetrahydropyran-3-yl] 2-(1H-indol-3-yl)acetate]	A (<25% of the tested compound remaining)	C (>75% of the tested compound remaining)
O=C(Cc1c[nH]c2ccccc12)O[C@H]1[C@@H](OC(=O)Cc2c[nH]c3ccccc23)COC(O)[C@@H]1OC(=O)Cc1c[nH]c2ccccc12 (stereo partly drawn) [Example 147, [(3S,4S,5R)-6-hydroxy-4,5-bis[[2-(1H-indol-3-yl)acetyl]oxy]tetrahydropyran-3-yl] 2-(1H-indol-3-yl)acetate]	B (25-75% of the tested compound remaining)	C (>75% of the tested compound remaining)
O=C(CCc1c[nH]c2ccccc12)O[C@H]1[C@@H](OC(=O)CCc2c[nH]c3ccccc23)COC(O)[C@@H]1OC(=O)CCc1c[nH]c2ccccc12 (stereo partly drawn) [Example 148, [(3S,4S,5R)-6-hydroxy-4,5-bis[3-(1H-indol-3-yl)propanoyloxy]tetrahydropyran-3-yl] 3-(1H-indol-3-yl)propanoate]	A (<25% of the tested compound remaining)	C (>75% of the tested compound remaining)
CCC(=O)OC1OC[C@H](OC(=O)CC)[C@H](OC(=O)CC)[C@H]1OC(=O)CC (stereo partly drawn) [Example 149, [(3S,4S,5R)-4,5,6-tri(propanoyloxy)tetrahydropyran-3-yl] propanoate]	C (>75% of the tested compound remaining)	C (>75% of the tested compound remaining)
CCCC(=O)OC1O[C@@H](C)[C@H](OC(=O)CCC)[C@@H](OC(=O)CCC)[C@H]1OC(=O)CCC (stereo partly drawn) [Example 152, [(2S,3S,4R,5R)-4,5,6-tri(butanoyloxy)-2-methyl-tetrahydropyran-3-yl] butanoate]	C (>75% of the tested compound remaining)	C (>75% of the tested compound remaining)
C[C@@H]1OC(O)[C@H](OC(=O)Cc2c[nH]c3ccccc23)[C@H](OC(=O)Cc2c[nH]c3ccccc23)[C@H]1OC(=O)Cc1c[nH]c2ccccc12 (stereo partly drawn) [Example 155, [(2S,3S,4R,5R)-6-hydroxy-4,5-bis[[2-(1H-indol-3-yl)acetyl]oxy]-2-methyl-tetrahydropyran-3-yl] 2-(1H-indol-3-yl)acetate]	C (>75% of the tested compound remaining)	C (>75% of the tested compound remaining)
CCCC(=O)O[C@@H]1[C@H](OC(=O)CCC)[C@H](C)OC(O)[C@H]1OC(=O)CCC (stereo partly drawn) [Example 156, [(2S,3R,4R,5S)-4,5-di(butanoyloxy)-6-hydroxy-2-methyl-tetrahydropyran-3-yl] butanoate]	A (<25% of the tested compound remaining)	C (>75% of the tested compound remaining)
CCC(=O)OC1O[C@@H](C)[C@@H](OC(=O)CC)[C@@H](OC(=O)CC)[C@@H]1OC(=O)CC (stereo partly drawn) [Example 157, [(2S,3R,4R,5S)-2-methyl-4,5,6-tri(propanoyloxy)tetrahydropyran-3-yl] propanoate]	A (<25% of the tested compound remaining)	C (>75% of the tested compound remaining)
CCCC(=O)OC[C@H]1OC(OC(=O)CCC)[C@H](OC(=O)CCC)[C@@H](OC(=O)CCC)[C@@H]1OC(=O)CCC (stereo partly drawn) [Example 160, [(2R,3R,4S,5R)-3,4,5,6-tetra(butanoyloxy)tetrahydropyran-2-yl]methyl butanoate]	A (<25% of the tested compound remaining)	C (>75% of the tested compound remaining)
CCCC(=O)OC[C@H]1OC(O)[C@H](OC(=O)CCC)[C@@H](OC(=O)CCC)[C@@H]1OC(=O)CCC (stereo partly drawn) [Example 161, [(2R,3R,4S,5R)-3,4,5-tri(butanoyloxy)-6-hydroxy-tetrahydropyran-2-yl]methyl butanoate]	A (<25% of the tested compound remaining)	C (>75% of the tested compound remaining)
CC(=O)OCC1(OC(C)=O)OC[C@@H](OC(C)=O)[C@H](OC(C)=O)[C@@H]1OC(C)=O (stereo partly drawn) [Example 162, [(3S,4S,5R)-2,3,4,5-tetraacetoxytetrahydropyran-2-yl]methyl acetate]	B (25-75% of the tested compound remaining)	C (>75% of the tested compound remaining)
CCCC(=O)OCC1(OC(=O)CCC)OC[C@@H](OC(=O)CCC)[C@H](OC(=O)CCC)[C@@H]1OC(=O)CCC (stereo partly drawn) [Example 163, [(3S,4S,5R)-2,3,4,5-tetra(butanoyloxy)tetrahydropyran-2-yl]methyl butanoate]	A (<25% of the tested compound remaining)	B (25-75% of the tested compound remaining)
